Consider two compounds from article PMC2287205 (Analytical and Bioanalytical Chemistry, 2008).

The target in one data set is ERα (Homo sapiens, UniProt P03372). The format is binding. As to conditions: mixture of five estrogenic compounds separated by gradient HPLC (Fig. 7).
The nature of data set [1]: Microsomal incubation with PB-induced rat liver microsomes. Particulars: 100 μM zearalenone, 120 min, 37 °C.

Sequence of ERα (P03372 311-547): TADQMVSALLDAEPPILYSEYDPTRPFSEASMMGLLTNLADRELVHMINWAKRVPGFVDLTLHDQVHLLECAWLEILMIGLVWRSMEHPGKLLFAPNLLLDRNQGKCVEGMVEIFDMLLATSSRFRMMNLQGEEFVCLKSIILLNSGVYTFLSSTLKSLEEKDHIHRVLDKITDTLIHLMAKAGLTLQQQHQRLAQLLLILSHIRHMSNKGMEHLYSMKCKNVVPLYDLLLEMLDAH

`O=c1oc2cc(O)ccc2cc1-c1ccc(O)cc1` [coumarol, 7-Hydroxy-3-p-hydroxyphenylcoumarine]: the “ERα bioaffinity detected in HRS ERα FP trace” value at ERα is reported as “possible to detect the ERα bioaffinities”.

For `C[C@H]1CCCC(=O)CCC/C=C/c2cc(O)cc(O)c2C(=O)O1` [zearalenone], the “ERα bioaffinity detected in HRS ERα FP trace” value at ERα is recorded as “possible to detect the ERα bioaffinities”. Also, in data set [1], the “Metabolism by rat liver microsomes” value is on record as “metabolized by rat liver microsomes into at least three major metabolites”.
